In US20170295788A1, “USE OF HETEROCYCLIC FLUOROALKENYL SULFONE COMPOUNDS FOR REPELLING MOLLUSCS” (Adama Makhteshim Ltd., priority 2014, published 2017):

Tested on: Deroceras reticulatum
Experiment: Split box trial: slug damage to lettuce seedlings / slug repellency
Assay type: in vivo
Experimental: A split box trial was conducted using Deroceras reticulatum as the slug species and lettuce seedling as the food source. There were 5 split treatments with each treatment replicated four times using a simple randomized block design. Each plot was a single enclosed cage of dimensions 0.6 m×0.4 m. Each cage was of opaque plastic construction with rigid sides and a removable fine muslin top to prevent escape of the slugs. The cages were each filled with natural loam soil to a depth of approximately 7 cm, which was consolidated to prevent slug escape. Half of each box was covered with a polythene sheet before spraying to prevent the spray from reaching the soil on half of the box. […] Following the application of fluensulfone 250 CS, one treatment was incorporated into the soil by mixing the top 2 cm of the soil. The other applications had no soil incorporation. Lettuce plants were planted into the soil either seven or two days after spraying. At these intervals after spraying, six lettuce plants were planted into each cage, three in the treated side and three in the untreated side. After transplanting the lettuce plants, eight adult slugs were introduced into the centre of each cage. The soil was kept damp for the duration of the trials. [table] All sprayed treatments applied in 200 l/ha water. Assessments were carried out after the introduction of the slugs. Severity of leaf damage was assessed using a % scale where 0=no damage and 100=total loss of plant foliage. Incidence of plant damage was assessed by counting the actual number of plants showing damage.

With `O=S(=O)(CCC(F)=C(F)F)c1ncc(Cl)s1` [fluensulfone] the “numbers of damaged lettuce plants” value (all fluensulfone treated boxes, compared to the untreated box) was “reduced compared to the untreated box”, the “amount of damage caused to the lettuce plants (damage severity)” value (treated boxes compared to the untreated box) was “reduced” and the “effect on live slugs (repellency)” value (treated boxes, slugs avoided the sprayed side and migrated to the untreated side) was “repellent effect”.
